Reference: the NIST ThermoML archive (doi:10.1021/je201334p)

Legend:
[1] = xn = mol fraction of the nth substance listed; conditions: 101 kPa, Liquid; for speed of sound: Sing-around technique in a fixed-path interferometer; for mass density: Vibrating tube method
[2] = refractive index (Na D-line) (dimensionless); xn = mol fraction of the nth substance listed; conditions: 101 kPa, Liquid, Standard Abbe refractometry

CCCC[n+]1cccc(C)c1.O=S(=O)([O-])C(F)(F)F [1-butyl-3-methylpyridinium trifluoromethanesulfonate] + O
Conditions	mass density, 288.15 K [kg/m3]	mass density, 298.15 K [kg/m3]	mass density, 308.15 K [kg/m3]	refractive index, 288.15 K	refractive index, 298.15 K	refractive index, 308.15 K	speed of sound, 288.15 K [m/s]	speed of sound, 298.15 K [m/s]	speed of sound, 308.15 K [m/s]
[1], x2 = 0	1287.07	1279.41	1271.8	–	–	–	1436.1	1412.3	1389.6
[1], x2 = 0.0794	1285.23	1277.62	1269.98	–	–	–	1439.2	1415.5	1392.5
[1], x2 = 0.1517	1283.28	1275.63	1267.96	–	–	–	1442.3	1418.7	1395.8
[1], x2 = 0.2502	1279.99	1272.28	1264.58	–	–	–	1447.7	1424.3	1401.5
[1], x2 = 0.3515	1275.76	1268	1260.24	–	–	–	1454.3	1431.2	1408.5
[1], x2 = 0.4528	1270.21	1262.4	1254.58	–	–	–	1463	1440	1417.4
[1], x2 = 0.5628	1261.9	1254.01	1246.08	–	–	–	1475.6	1452.9	1430.3
[1], x2 = 0.6561	1251.55	1243.59	1235.57	–	–	–	1489.9	1467.6	1445.3
[1], x2 = 0.7494	1235.48	1227.52	1219.46	–	–	–	1508.6	1487.4	1465.8
[1], x2 = 0.8383	1208.29	1200.56	1192.69	–	–	–	1530.4	1512.5	1493.4
[1], x2 = 0.9201	1155.76	1149.07	1142.04	–	–	–	1548.9	1540.1	1528.6
[1], x2 = 0.9603	1103.57	1098.18	1092.3	–	–	–	1553.2	1553.5	1550.4
[2], x2 = 0	–	–	–	1.46446	1.46155	1.45868	–	–	–
[2], x2 = 0.0794	–	–	–	1.46358	1.46073	1.45784	–	–	–
[2], x2 = 0.1517	–	–	–	1.46266	1.45982	1.45694	–	–	–
[2], x2 = 0.2502	–	–	–	1.46111	1.45822	1.45535	–	–	–
[2], x2 = 0.3515	–	–	–	1.4591	1.45623	1.45331	–	–	–
[2], x2 = 0.4528	–	–	–	1.45651	1.45363	1.45069	–	–	–
[2], x2 = 0.5628	–	–	–	1.45257	1.44968	1.44673	–	–	–
[2], x2 = 0.6561	–	–	–	1.4477	1.44482	1.44183	–	–	–
[2], x2 = 0.7494	–	–	–	1.44008	1.43724	1.43429	–	–	–
[2], x2 = 0.8383	–	–	–	1.42747	1.42474	1.42192	–	–	–
[2], x2 = 0.9201	–	–	–	1.40357	1.40118	1.39863	–	–	–
[2], x2 = 0.9603	–	–	–	1.37998	1.37782	1.3757	–	–	–

CCCCCCn1cc[n+](C)c1.N#CN=C=[N-] [1-hexyl-3-methylimidazolium dicyanamide] + O
Conditions	mass density, 288.15 K [kg/m3]	mass density, 298.15 K [kg/m3]	mass density, 308.15 K [kg/m3]	refractive index, 288.15 K	refractive index, 298.15 K	refractive index, 308.15 K	speed of sound, 288.15 K [m/s]	speed of sound, 298.15 K [m/s]	speed of sound, 308.15 K [m/s]
[1], x2 = 0	1034.76	1028.56	1022.4	–	–	–	1713.4	1687.7	1662.7
[1], x2 = 0.0785	1034.48	1028.25	1022.07	–	–	–	1713.4	1688.1	1663.1
[1], x2 = 0.1191	1034.31	1028.07	1021.88	–	–	–	1713.8	1688.3	1663.3
[1], x2 = 0.2124	1033.88	1027.61	1021.38	–	–	–	1714.3	1688.9	1664
[1], x2 = 0.3055	1033.38	1027.08	1020.81	–	–	–	1715	1689.7	1664.8
[1], x2 = 0.4019	1032.76	1026.41	1020.08	–	–	–	1715.8	1690.6	1665.8
[1], x2 = 0.5096	1031.9	1025.46	1019.04	–	–	–	1717	1692.1	1667.6
[1], x2 = 0.6069	1030.86	1024.31	1017.78	–	–	–	1717.9	1693.4	1668.9
[1], x2 = 0.7123	1029.08	1022.4	1015.71	–	–	–	1717.1	1693.2	1669.1
[1], x2 = 0.8067	1026.34	1019.6	1012.81	–	–	–	1709.4	1687.6	1665.3
[1], x2 = 0.9031	1020.46	1014.13	1007.62	–	–	–	1672	1659.1	1644.5
[1], x2 = 0.9499	1014.51	1009.12	1003.34	–	–	–	1618.9	1618.6	1614.6
[2], x2 = 0	–	–	–	1.50729	1.50415	1.501	–	–	–
[2], x2 = 0.0785	–	–	–	1.50599	1.50284	1.49962	–	–	–
[2], x2 = 0.1191	–	–	–	1.50525	1.5021	1.49894	–	–	–
[2], x2 = 0.2124	–	–	–	1.50333	1.50016	1.49698	–	–	–
[2], x2 = 0.3055	–	–	–	1.50096	1.4978	1.49462	–	–	–
[2], x2 = 0.4019	–	–	–	1.49784	1.49467	1.49131	–	–	–
[2], x2 = 0.5096	–	–	–	1.49312	1.48997	1.48679	–	–	–
[2], x2 = 0.6069	–	–	–	1.48721	1.48405	1.48083	–	–	–
[2], x2 = 0.7123	–	–	–	1.47716	1.474	1.47076	–	–	–
[2], x2 = 0.8067	–	–	–	1.46233	1.45924	1.4559	–	–	–
[2], x2 = 0.9031	–	–	–	1.43179	1.42902	1.42645	–	–	–
[2], x2 = 0.9499	–	–	–	1.40179	1.39945	1.39679	–	–	–
